Assay results: patent US20110100371A1, “ANTI-VIRAL PROPERTIES OF ZOSTERIC ACID AND RELATED MOLECULES” (FLORIDA GULF COAST UNIVERSITY, priority 2007, published 2011)
Entries after “also recorded” stand apart in the source; their conditions may differ. Where two headings read alike, the source gives them in different places.

Tests used:
DENV-1,2,3 and 4 = assay: Focus forming unit (FFU) reduction assay, several dengue strains stated together; format: cell-based; details: Dengue virus
Protocol: (§1) DENV-1 strain HI-1, DENV-2 strain NG-2, DENV-3 strain H-78, and DENV-4 strain H-42 were obtained from R. Tesh at the World Health Organization Arbovirus Reference Laboratory at the University of Texas at Galveston. Viruses were propagated in the […] kidney epithelial cell line, LLCMK-2, a gift of K. Olsen at Colorado State University. LLCMK-2 cells were grown in Dulbecco's modified eagle medium (DMEM) with 10% (v/v) fetal bovine serum (FBS), 2 mM Glutamax, 100 U/ml penicillin G, 100 μg/ml streptomycin and 0.25 μg/ml amphotericin B, at 37° C. with 5% (v/v) CO2.
(§2) LLCMK-2 target cells were seeded at a density of 1×10^5 cells in each well of a 6-well plate 24 h prior to infection. Approximately 200 FFU of virus were incubated with or without chemistries in serum-free DMEM for 1 h at rt. […] Virus foci were detected using supernatant from mouse anti-DENV hybridoma E60 (obtained from M. Diamond at Washington University) followed by horseradish peroxidase-conjugated goat anti-mouse immunoglobulin (Pierce, Rockford, Ill.) and developed using AEC chromogen substrate (Dako, Carpinteria, Calif.). Results were expressed as the average of at least two independent trials with three replicates in each trial.

DENV-2 [1] = assay: Post-binding focus-forming assay; format: cell-based, dengue virus; details: DENV-2 bound at 4° C., then chemistry added 1 h at 4° C.
Protocol: To determine if the observed inhibitory effect was due to interference with interactions that occur pre-binding versus post-binding of virions to the target cells, approximately 200 FFU of DENV-2 was allowed to bind to target LLCMK-2 cells for 1 h at 4° C. to allow binding, but prevent internalization. Unbound virus was washed off with PBS at 4° C., then CF 238 was added and incubated at 4° C. for 1 h. Cultures were washed again in 4° C. PBS and warmed to 37° C. Agarose overlays, incubation, and immunological detection were conducted as described for the focus forming assay.

DENV-2 [2] = assay: Pre-binding focus-forming assay; format: cell-based, dengue virus; details: DENV-2, chemistry incubated with target cells 1 h at 4° C., rinsed before infection
Protocol: To determine if the observed inhibitory effect was due to interference caused by modifications to the target cell surface, CF 238 was incubated with the target cells for 1 h at 4° C., the cells were rinsed with PBS, and approximately 200 FFU of DENV-2 was allowed to infect the cells at 4° C. Agarose overlays, incubation, and immunological detection were conducted as described for the focus forming assay.

DENV-4 strain H-42 = assay: Focus forming unit (FFU) reduction assay, DENV-4; format: cell-based; details: Dengue virus, DENV4, LLC-MK2; DENV-4 (D-4), LLCMK-2 target cells; read-out: IC50 μM ± sem
Protocol: as §1, §2

DENV-3 strain H-78 = assay: Focus forming unit (FFU) reduction assay, DENV-3; format: cell-based; details: Dengue virus, DENV3, LLC-MK2; DENV-3 (D-3), LLCMK-2 target cells; read-out: IC50 μM ± sem
Protocol: as §1, §2

DENV-1 strain HI-1 = assay: Focus forming unit (FFU) reduction assay, DENV-1; format: cell-based; details: Dengue virus, DENV1, LLC-MK2; DENV-1 (D-1), LLCMK-2 target cells; read-out: IC50 μM ± sem
Protocol: as §1, §2

DENV-2 [3] = assay: qRT-PCR virus binding assay; format: cell-based, dengue virus; details: DENV-2 pre-incubated 45 m at 4° C., infection of LLCMK-2 45 m at 4° C.
Protocol: Infection of LLCMK-2 target cells in six well plates was performed in duplicate using 10^5 FFU of DENV-2 that had been pre-incubated for 45 m at 4° C. with CF 238 or pooled heterotypic anti-DENY human serum. After a 45 m infection at 4° C., infected monolayers were washed with PBS and harvested with a cell scraper, added to a 1.5 ml microfuge tube containing 350 μl of AR-200 silicone oil (Sigma-Aldrich, St. Louis, Mo.) mixed with 150 μl of silicone fluid (Thomas, Swedesboro, N.J.), and spun at 14,000 rpm in a microfuge for 1 m to separate the unbound virus from the cell-bound virus in the pellets. The tubes were then submerged in liquid nitrogen for 30 s to freeze the contents. The cell pellets with bound virus were recovered by clipping off the bottoms of the tubes with small wire clippers into 15 ml conical tubes. Viral RNA was extracted from the cell pellets using the Qiagen Viral RNA Extraction kit (Qiagen, Chatsworth, Calif.).
Quantitative real time reverse transcription PCR (qRT-PCR) was performed on the extracted RNA using the Quantitect Sybr Green RT-PCR kit (Qiagen inc., Chatsworth, Calif.), following the manufacturer's specifications and amplification protocols, using dengue-specific primers: (Den2F: […], Den2R: […]). […]

DENV-2 [4] = assay: Post-entry focus-forming assay; format: cell-based, dengue virus; details: DENV-2, chemistry added post-entry 1 hr at 37° C.
Protocol: To determine if the observed inhibitory effect was due to interference with post-entry steps in the viral life cycle, approximately 200 FFU of DENV-2 without CF 238 was allowed to bind and enter target cells for 1 h at 37° C. as described for the focus forming assay. Unbound virus was then removed by rinsing with PBS and CF 238 was added to the cells post-entry for 1 hr at 37° C. Cultures were washed again in PBS and agarose overlays, incubation, and immunological detection was conducted as described for the focus forming assay.

DENV-2 strain NG-2 = assay: Focus forming unit (FFU) reduction assay, DENV-2; format: cell-based, dengue virus
Protocol: as §1
LLCMK-2 target cells were seeded at a density of 1×10^5 cells in each well of a 6-well plate 24 h prior to infection. Approximately 200 FFU of virus were incubated with or without chemistries in serum-free DMEM for 1 h at rt. Virus/chemistry or virus/control mixtures were allowed to infect confluent target cell monolayers for 1 h at 37° C., with rocking every 15 m, after which time the medium was aspirated and overlaid with fresh DMEM/10% (v/v) FBS containing 0.85% (w/v) Sea-Plaque Agarose (Cambrex Bio Science, Rockland, Me.). Cells with agar overlays were incubated at 4° C. for 20 m to set the agar. Infected cells were then incubated at 37° C. with 5% CO2 for 3 days (DENV-1, 3 and 4) or 5 days (DENV-2). Infected cultures were fixed with 10% formalin overnight at 4° C., permeabilized with 70% (v/v) ethanol for 20 m, and rinsed with PBS prior to immunostaining. Virus foci were detected using supernatant from mouse anti-DENV hybridoma E60 (obtained from M. Diamond at Washington University) followed by horseradish peroxidase-conjugated goat anti-mouse immunoglobulin (Pierce, Rockford, Ill.) and developed using AEC chromogen substrate (Dako, Carpinteria, Calif.). Results were expressed as the average of at least two independent trials with three replicates in each trial.

[5] = Dengue virus, DENV2, LLC-MK2, read-out: IC50 μM ± sem
[6] = Dengue virus, DENV2, read-out: maximum inhibition
[7] = Dengue virus, DENV2, DENV-2, rounded statement in text, read-out: IC50 (approximate)

With CCN(CCOC(=O)/C=C/c1ccc(O)cc1)Cc1cc(Cl)ccc1O [CF 238] the inhibition at 84 µM (DENV-1,2,3 and 4; DENV1, AT84, all dengue strains, at 84 μM) was 86 to 100%, the IC50 (DENV-1,2,3 and 4; DENV1, range over DENV-1, 3 and 4, read-out: IC50 against the other three DENV types) was 14 to 47 µM and the “inhibition of virus already bound to target cells” value (DENV-2 [1]) was “No inhibition of infection was observed”. For the same molecule, the “inhibition when target cells treated prior to infection” value (DENV-2 [2]) was “no evidence of inhibition; also recorded: does not inhibit virus infection when pre-incubated with target cells”, the IC50 (DENV-4 strain H-42) was 47 ± 5 µM and the IC50 (DENV-3 strain H-78) was 14 ± 2 µM. The IC50 (DENV-1 strain HI-1) was 24 ± 6 µM, the “virus binding/attachment to target cells (qRT-PCR signal)” value (DENV-2 [3]) was “did not inhibit virus binding; also recorded: enhances virus:cell binding” and the “inhibition when added after viral entry” value (DENV-2 [4]) was “no evidence of inhibition”. For the same molecule, the inhibition at 84 µM (DENV-2 strain NG-2; Dengue virus, DENV2, AT84) was 86%, the IC50 (DENV-2 strain NG-2; [5]) was 46 ± 4 µM and the “activity relative to zosteric acid” value (DENV-2 strain NG-2; anti-DENV inhibitory activity compared with the natural product) was roughly 100 times.

CN(CCCNC(=O)c1ccc(O)cc1)CCCNC(=O)c1ccc(O)cc1 [CF 285] showed an IC50 (DENV-2 strain NG-2; [5]) of 2520 µM, an inhibition at 3000 µM (DENV-2 strain NG-2; [6]) of 63% and an IC50 (DENV-2 strain NG-2; [7]) of roughly 2000 µM.

Work on CN(CCCNC(=O)c1ccc(O)cc1)CCCNC(=O)c1ccc2cc(O)ccc2c1 [CF 290] yielded an IC50 (DENV-2 strain NG-2; [5]) of 294 ± 42 µM and an inhibition at 367 µM (DENV-2 strain NG-2; [6]) of 60%.

Molecule CCN(CCCN(CC)C(=O)c1cccc(O)c1)C(=O)c1cccc(O)c1 [CF 490] has an IC50 (DENV-2 strain NG-2; [5]) of 2380 µM, an inhibition at 3000 µM (DENV-2 strain NG-2; [6]) of 84% and an IC50 (DENV-2 strain NG-2; [7]) of roughly 2000 µM.

With O=C(c1ccc(O)cc1)N1CCCN(C(=O)c2ccc3cc(O)ccc3c2)CC1 [CF 296] the “dose-dependent inhibition against DENV-2” value (DENV-2 strain NG-2; DENV-2, result in words) was “did not show evidence of clear dose-dependent inhibition”.

With O=C(O)/C=C/c1ccc(OS(=O)(=O)O)cc1 [ZA, p-sulfoxy-cinnamic acid] the inhibition at 5000 µM (DENV-2 strain NG-2; Dengue virus, DENV2) was 99%, the IC50 (DENV-2 strain NG-2; [5]) was 2380 µM and the IC50 (DENV-2 strain NG-2; [7]) was roughly 2000 µM.
